Test results from PubChem BioAssay AID1963961 (Molecular Pharmacology Branch, DTP, NCI, 2024).

Test system: K98450-129-R-PDC multicell spheroids, viability
Test: Anticancer human tumor K98450-129-R-PDC patient-derived colon adenocarcinoma cell line growth inhibition [PI3K]
Settings: for IC50: curve of first compound; for viability, T/C: stronger effect = lower value
Summary of the method: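 We assembled tumor spheroids that included a stromal compartment of HUVEC and MSCs, then exposed them to targeted agents alone and together with PI3K pathway inhibitors. Concentration series descended by half-log from clinically achievable Cmax levels. Viability served as the endpoint.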
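Also: spheroids exposed to agents for seven days before read-out.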

## CC(C)n1nc(-c2ccc3oc(N)nc3c2)c2c(N)ncnc21 + Cc1nc(NC(=O)N2CCCC2C(N)=O)sc1-c1ccnc(C(C)(C)C(F)(F)F)c1
Second compound 0.0316 µM
  IC50: > 100 nM
Second compound 0.1 µM
  IC50: > 100 nM
Second compound 0.316 µM
  IC50: > 100 nM
Second compound 1 µM
  IC50: > 100 nM
Second compound 3.16 µM
  IC50: > 100 nM
Second compound 10 µM
  IC50: > 100 nM
Second compound 0.0316 µM, first compound 0.000316 µM
  viability, T/C: 102%
Second compound 0.0316 µM, first compound 0.001 µM
  viability, T/C: 97.8%
Second compound 0.0316 µM, first compound 0.00316 µM
  viability, T/C: 101%
Second compound 0.0316 µM, first compound 0.01 µM
  viability, T/C: 91.2%
Second compound 0.0316 µM, first compound 0.0316 µM
  viability, T/C: 87.2%
Second compound 0.0316 µM, first compound 0.1 µM
  viability, T/C: 75.3%
Second compound 0.1 µM, first compound 0.000316 µM
  viability, T/C: 106%
Second compound 0.1 µM, first compound 0.001 µM
  viability, T/C: 95.3%
Second compound 0.1 µM, first compound 0.00316 µM
  viability, T/C: 99.5%
Second compound 0.1 µM, first compound 0.01 µM
  viability, T/C: 91%
Second compound 0.1 µM, first compound 0.0316 µM
  viability, T/C: 88.8%
Second compound 0.1 µM, first compound 0.1 µM
  viability, T/C: 79.9%
Second compound 0.316 µM, first compound 0.000316 µM
  viability, T/C: 95.8%
Second compound 0.316 µM, first compound 0.001 µM
  viability, T/C: 99.5%
Second compound 0.316 µM, first compound 0.00316 µM
  viability, T/C: 89.2%
Second compound 0.316 µM, first compound 0.01 µM
  viability, T/C: 90.2%
Second compound 0.316 µM, first compound 0.0316 µM
  viability, T/C: 86.4%
Second compound 0.316 µM, first compound 0.1 µM
  viability, T/C: 72.3%
Second compound 1 µM, first compound 0.000316 µM
  viability, T/C: 88.6%
Second compound 1 µM, first compound 0.001 µM
  viability, T/C: 89.5%
Second compound 1 µM, first compound 0.00316 µM
  viability, T/C: 92.8%
Second compound 1 µM, first compound 0.01 µM
  viability, T/C: 80.2%
Second compound 1 µM, first compound 0.0316 µM
  viability, T/C: 81.9%
Second compound 1 µM, first compound 0.1 µM
  viability, T/C: 70%
Second compound 3.16 µM, first compound 0.000316 µM
  viability, T/C: 79.4%
Second compound 3.16 µM, first compound 0.001 µM
  viability, T/C: 78%
Second compound 3.16 µM, first compound 0.00316 µM
  viability, T/C: 79.5%
Second compound 3.16 µM, first compound 0.01 µM
  viability, T/C: 70.8%
Second compound 3.16 µM, first compound 0.0316 µM
  viability, T/C: 77.9%
Second compound 3.16 µM, first compound 0.1 µM
  viability, T/C: 61.2%
Second compound 10 µM, first compound 0.000316 µM
  viability, T/C: 66.1%
Second compound 10 µM, first compound 0.001 µM
  viability, T/C: 70.9%
Second compound 10 µM, first compound 0.00316 µM
  viability, T/C: 69.8%
Second compound 10 µM, first compound 0.01 µM
  viability, T/C: 71.9%
Second compound 10 µM, first compound 0.0316 µM
  viability, T/C: 64.3%
Second compound 10 µM, first compound 0.1 µM
  viability, T/C: 59.2%
